Laboratory results reported in patent US20220072075A1, “METHOD FOR PRODUCING NATURAL ANTIMICROBIAL SUBSTANCE AND ANTIMICROBIAL COMPOSITION COMPRISING NATURAL ANTIMICROBIAL SUBSTANCE PRODUCED BY THE SAME” (MY CO.,LTD, priority 2020, published 2022).

Tested on: Staphylococcus aureus
Test: Antimicrobial Efficacy Test 4: elimination of Staphylococcus aureus, identification using a mass spectrometer
Format: cell-based
Conditions: substance added as named (70% ethanol, Febreze)
Experimental: In the present disclosure, “natural antimicrobial substance (n %)” means that the natural antimicrobial substance of the present disclosure is dissolved in multi-photocatalyst water or hypochlorous acid water (pH 5) at a concentration of n %. FIGS. 4 to 9 show the data obtained by identifying Staphylococcus aureus and Staphylococcus aureus plus specific substance using a mass spectrometer.

CCO [70% ethanol, ethanol]
elimination of Staphylococcus aureus (mass spectrum / bacterial identification): not eliminated
